Measurements published in US20090324508A1, “Broad Spectrum and Skin Friendly Disinfecting Composition” (CENTENNIAL VENTURES B.V., priority 2006, published 2009).

Test: Foam test, dispensing from a foam dispenser
Type: physicochemical
Conditions: in the presence of an alcohol
Protocol: Preferably, the foam booster used in the composition of the invention provides a stable foam when dispensing a composition consisting of 36% (w/w) ethanol and 0.2% (w/w), preferably 0.3% (w/w), of the foam booster from a foam dispenser with a relatively high air to liquid ratio, preferably an air to liquid ratio of 9-11, more preferably an air to liquid ratio of 11, on an inert and smooth surface at about 20° C. A suitable foam pump is for instance the L11 foam pump from Rexam Airspray, which has an air to liquid ratio of 11, a liquid output volume of 0.75 ml, a stroke of 14.8 mm. The foam is optimally produced by applying regular speed and pressure onto the foam dispenser, as is known to one skilled in the art.
According to this invention, a stable foam is a foam that remains as a foam for at least 5-10 seconds, preferably for at least 10-15 seconds, more preferably for at least 15-20 seconds, even more preferably for at least 20-25 seconds, most preferably for at least 25-30 seconds, as measured immediately after dispensing from a foam dispenser as mentioned above.

Compound | Foam stability as foam booster
sodium lauryl ether sulphate | do not provide a stable foam
CCCCCCCCCCCCc1ccc(S(=O)(=O)O)cc1 [dodecyl benzene sulphonic acid] | do not provide a stable foam
